Measured values: patent US9790215B2 (FLATLEY DISCOVERY LAB, LLC, priority 2013, dated 2017)

Target: T1, human ΔF508-CFTR (Homo sapiens, UniProt P13569, DEL508-508)
T1 construct: expressed in transfected cells
Assay: CFTR-YFP High Throughput Assay (YFP halide flux in FRT cells)
Type: cell-based
Conditions: FRT cells expressing human ΔF508-CFTR and YFP; for EC50: forskolin stimulated
How it was run: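 FRT cells stably co-expressing human ΔF508-CFTR and halide-sensitive YFP-H148Q/I152L were treated with compound […] for 24–26 h at 37 °C (corrector mode), washed, then stimulated with 20 μM forskolin plus 30 μM potentiator P3 for 60–120 min at room temperature. Iodide-induced YFP quench (ex 500/em 540 nm) rates came from least-squares fitting.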

T1 sequence (P13569 with tags, fused parts or gaps DEL508-508): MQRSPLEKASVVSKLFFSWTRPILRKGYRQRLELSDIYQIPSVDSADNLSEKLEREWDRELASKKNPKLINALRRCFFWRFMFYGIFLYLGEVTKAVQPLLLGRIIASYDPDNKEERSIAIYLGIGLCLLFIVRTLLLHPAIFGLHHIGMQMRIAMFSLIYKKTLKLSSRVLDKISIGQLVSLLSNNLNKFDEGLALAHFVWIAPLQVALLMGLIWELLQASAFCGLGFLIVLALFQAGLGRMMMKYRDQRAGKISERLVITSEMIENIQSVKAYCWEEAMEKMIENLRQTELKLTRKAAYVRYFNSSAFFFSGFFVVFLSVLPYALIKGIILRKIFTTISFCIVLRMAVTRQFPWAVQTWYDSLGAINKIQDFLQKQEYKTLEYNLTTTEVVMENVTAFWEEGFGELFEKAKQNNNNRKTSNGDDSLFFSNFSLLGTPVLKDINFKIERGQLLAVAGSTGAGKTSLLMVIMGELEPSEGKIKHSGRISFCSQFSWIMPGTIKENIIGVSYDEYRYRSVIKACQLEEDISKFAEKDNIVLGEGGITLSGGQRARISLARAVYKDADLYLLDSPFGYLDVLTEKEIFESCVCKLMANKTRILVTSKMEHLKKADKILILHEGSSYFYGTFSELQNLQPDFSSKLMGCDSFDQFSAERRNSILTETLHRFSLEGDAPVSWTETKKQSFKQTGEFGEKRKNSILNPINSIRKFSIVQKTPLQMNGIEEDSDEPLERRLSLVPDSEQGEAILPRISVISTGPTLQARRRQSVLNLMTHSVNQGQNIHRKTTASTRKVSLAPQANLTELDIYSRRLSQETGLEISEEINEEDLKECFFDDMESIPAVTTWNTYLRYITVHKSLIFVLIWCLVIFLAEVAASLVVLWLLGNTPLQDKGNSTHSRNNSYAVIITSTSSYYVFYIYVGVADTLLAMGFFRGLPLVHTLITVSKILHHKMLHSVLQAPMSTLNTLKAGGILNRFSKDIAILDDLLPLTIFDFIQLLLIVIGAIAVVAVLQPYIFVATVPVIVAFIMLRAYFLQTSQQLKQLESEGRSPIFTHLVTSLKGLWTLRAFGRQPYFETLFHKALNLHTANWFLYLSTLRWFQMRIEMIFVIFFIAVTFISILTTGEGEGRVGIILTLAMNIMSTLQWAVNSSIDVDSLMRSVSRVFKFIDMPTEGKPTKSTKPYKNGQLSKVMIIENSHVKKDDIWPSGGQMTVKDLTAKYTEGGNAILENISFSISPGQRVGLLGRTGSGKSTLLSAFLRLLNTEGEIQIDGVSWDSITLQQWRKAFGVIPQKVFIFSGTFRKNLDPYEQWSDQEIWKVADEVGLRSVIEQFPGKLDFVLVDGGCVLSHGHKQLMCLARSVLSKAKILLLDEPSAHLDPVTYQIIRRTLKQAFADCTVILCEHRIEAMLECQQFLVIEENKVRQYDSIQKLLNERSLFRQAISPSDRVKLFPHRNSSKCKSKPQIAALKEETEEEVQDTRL

Row | Molecule | EC50 [µM] | % Efficacy (Emax normalized to the positive control)
1 | CCN(C(=O)Cn1ncc2c([nH]c3ccccc32)c1=O)c1ccc2c(c1)OC(F)(F)O2 [Example 149, N-(2,2-difluorobenzo[d][1,3]dioxol-5-yl)-N-ethyl-2-(4-oxo-4,5-dihydro-3H-pyridazino[4,5-b]indol-3-yl)acetamide] | < 10 | 
2 | CCN(C(=O)c1nn(-c2ccc(C)cc2)c(=O)c2c1c1ccccc1n2CC#N)c1ccccc1 [Example 150, 5-(cyanomethyl)-N-ethyl-4-oxo-N-phenyl-3-(p-tolyl)-4,5-dihydro-3H-pyridazino[4,5-b]indole-1-carboxamide] | > 20 | 
3 | CCN(C(=O)c1nn(-c2ccc(C)cc2)c(=O)c2c1c1ccccc1n2CC(=O)O)c1ccccc1 [Example 151, 2-(1-(ethyl(phenyl)carbamoyl)-4-oxo-3-(p-tolyl)-3H-pyridazino[4,5-b]indol-5(4H)-yl)acetic acid] | > 20 | 
4 | CCN(C(=O)c1nn(-c2ccc(C)cc2)c(=O)c2c1c1ccccc1n2C(C)C)c1ccccc1 [Example 152, N-ethyl-5-isopropyl-4-oxo-N-phenyl-3-(p-tolyl)-4,5-dihydro-3H-pyridazino[4,5-b]indole-1-carboxamide] | > 20 | 
5 | CCN(C(=O)c1nn(-c2ccc(C)cc2)c(=O)c2c1c1ccccc1n2Cc1ccccn1)c1ccccc1 [Example 153, N-ethyl-4-oxo-N-phenyl-5-(pyridin-2-ylmethyl)-3-(p-tolyl)-4,5-dihydro-3H-pyridazino[4,5-b]indole-1-carboxamide] | > 20 | 
6 | CCN(C(=O)Cn1nc(Cc2cccnc2)c2c3ccccc3n(C)c2c1=O)c1ccc2c(c1)OC(F)(F)O2 [Example 157, N-(2,2-difluorobenzo[d][1,3]dioxol-5-yl)-N-ethyl-2-(5-methyl-4-oxo-1-(pyridin-3-ylmethyl)-4,5-dihydro-3H-pyridazino[4,5-b]indol-3-yl)acetamide] | > 20 | 
7 | N-(2,2-difluorobenzo[d][1,3]dioxol-5-yl)-N-ethyl-2-(1-oxo-4-(4-sulfamoyl-phenyl)phthalazin-2(1H)-yl)acetamide [Example 17] | < 10 | ++ (a range of 80%-30%)
8 | N-(2,2-difluorobenzo[d][1,3]dioxol-5-yl)-N-ethyl-2-(1-oxo-4-(pyridin-3-yl)phthalazin-2(1H)-yl)acetamide [Example 23] | 10 to 20 | ++ (a range of 80%-30%)
9 | N-(2,2-difluorobenzo[d][1,3]dioxol-5-yl)-N-ethyl-2-(4-(3-fluorophenyl)-1-oxophthalazin-2(1H)-yl)acetamide [Example 22] | < 10 | ++ (a range of 80%-30%)
10 | N-ethyl-N-(4-ethylphenyl)-2-(1-oxo-4-(4-sulfamoylphenyl)phthalazin-2(1H)-yl)acetamide [Example 12] | > 20 | ++ (a range of 80%-30%)
11 | N-ethyl-N-(4-ethylphenyl)-2-(4-(3-hydroxyphenyl)-1-oxophthalazin-2(1H)-yl)acetamide [Example 8] | < 10 | ++ (a range of 80%-30%)
12 | N-ethyl-N-(4-ethylphenyl)-2-(4-(4-(methylsulfonyl)phenyl)-1-oxophthalazin-2(1H)-yl)acetamide [Example 15] | > 20 | + (a range of 30%-10%)
13 | methyl 4-(3-(2-(ethyl(4-ethylphenyl)amino)-2-oxoethyl)-4-oxo-3,4-dihydrophthalazin-1-yl)benzoate [Example 14] | > 20 | ++ (a range of 80%-30%)
